Experimental data: paper PMC5561212, “In Vitro Micropatterned Human Pluripotent Stem Cell Test (µP-hPST) for Morphometric-Based Teratogen Screening” (Scientific Reports, 2017)
≈ marks a conversion by molar mass, not a printed value. Entries after “also recorded” stand apart in the source; their conditions may differ. Read-outs that look alike come from different tables or passages of the source.

Experiments:
[1] = tested on: adult human dermal fibroblasts (aHDF); assay: Cytotoxicity assay (MTS), general cytotoxicity; format: cell-based; conditions: aHDF cells, 3 days, 25% inhibitory concentration
Description: (§1) A set of 30 compounds of known teratogenicity was selected to establish and validate the µP-hPST (Table 1). The compounds include equal number of non-teratogens and teratogens, and differ in chemical property and therapeutic usage. Before tested in the µP-hPSC colonies, the cytotoxicity profile of each compound was acquired. Two cell lines, hPSC line H9 and adult human dermal fibroblast line aHDF, were tested to represent embryonic cytotoxicity and general cytotoxicity of the compound respectively (Supplementary Figs S1, S2). The IC25 values, which were the 25% inhibitory concentrations, were calculated as the highest non-cytotoxic concentrations of the compound (Table 2, Fig. 1).
(§2) Human embryonic cell line H9 (WiCell Research Institute, Inc) and adult human dermal fibroblast (aHDF, Lonza) were cultured as previously described. Briefly, H9 cells were cultured in tissue culture plates coated with Matrigel^TM (354277, BD Biosciences) in mTeSR^TM1 medium (05850, StemCell^TM Technologies). Dispase (07923, StemCell^TM Technologies) treatment and mechanical scraping were applied during normal subculture. The aHDF cells was cultured in DMEM medium (10569-010, Gibco), supplemented with 10% FBS (SV30160.03, Thermo Scientific Hyclone) and 1% Pen-Strep (09367-34, Nacalai Tesque). Cells were subcultured every 5–6 days using 0.25% Trypsion-EDTA (25200-114, Gibco) to detach the cells.
(§3) The adverse effect of test compounds on cell proliferation and viability was detected using CellTiter 96® AQueous One Solution Cell Proliferation Assay (MTS, G3580, Promega). 10,000 H9 cells or 500 aHDF cells were seeded in 96-well tissue culture plates. For H9 cells, Matrigel^TM was coated before seeding. For each compound, 8 concentrations from serial 5-fold dilutions were tested besides the vehicle controls. Cells were cultured for 3 days with medium half change every day before cell viability was measured. Each drug was tested in three independent runs and its IC25 values (inhibitory concentrations which can cause 25% of reduction in cell number) were acquired by logistic regression using OriginPro 9.

hPSC = tested on: hPSC; parameters: method as in PMID 24123775; conditions: cited from earlier work
[2] = cited from earlier work; for In vivo teratogenicity: Table 1, known teratogenicity; for In vivo teratogenicity (in words): Supplementary Tables S2, S3
[3] = tested on: human embryonic cell line H9; assay: Cytotoxicity assay (MTS), embryonic cytotoxicity; format: cell-based; conditions: H9 cells, 3 days, 25% inhibitory concentration
Description: as §1, §2, §3

[4] = cited from earlier work
[5] = tested on: µP-hPSC colonies (H9) under mesoendoderm induction; assay: µP-hPST: mesoendoderm pattern disruption in µP-hPSC colonies and two-step teratogen classification; conditions: for Teratogenicity in µP-hPST / Teratogenicity in µP-hPST (in words): two-step classification rule; for Mesoendoderm pattern disruption seen in T fluorescent images: 3 days of compound exposure, in words
[6] = tested on: human pluripotent stem cells; parameters: method as in PMID 24154490; conditions: cited from earlier work
[7] = human plasma, ref U.S. FDA website, EMA website or published journals (Supplementary Table S1)

| Structure (SMILES) | IC25aHDF [1] [µg/mL] | Teratogenicity in other in vitro assays (hPSC) | In vivo teratogenicity [2] | IC25H9 [3] [µg/mL] | Cmax [4, 7] [ng/mL] | Teratogenicity in µP-hPST [5] | In vivo teratogenicity (in words) [2] | Teratogenicity in µP-hPST (in words) [5] | Classification in the Targeted Biomarker Assay (in words) (hPSC) | Mesoendoderm pattern disruption seen in T fluorescent images [5] | Defects caused in newborns [2] | Teratogenicity in other in vitro assays [6] | Anomalies known to be induced [2] | Cmax ([4]; compounds tested previously) [ng/mL] |
| --- | --- | --- | --- | --- | --- | --- | --- | --- | --- | --- | --- | --- | --- | --- |
| CC(=O)Nc1ccc(O)cc1 [Acetaminophen] | 40 (≈ 265 µM) | NON[6] | NON | 171 (≈ 1130 µM) | 24000 |  |  |  |  |  |  |  |  |  |
| Nc1nc2c(ncn2COCCO)c(=O)[nH]1 [Acyclovir] | 285 (≈ 1270 µM) |  |  | 267 (≈ 1190 µM) | 5650 |  |  |  |  |  |  |  |  |  |
| CC1(C)S[C@@H]2[C@H](NC(=O)[C@H](N)c3ccc(O)cc3)C(=O)N2[C@H]1C(=O)O [Amoxicillin] | >1000 | NON[6] | NON | >1000 | 14400 | NON | Non-teratogen |  |  |  |  |  |  |  |
| O=C1O[C@H]([C@@H](O)CO)C(O)=C1O [Ascorbic acid] | 63 (≈ 358 µM) |  |  | 105 (≈ 596 µM) | 156000 | NON |  |  |  |  |  |  |  |  |
| COc1ccccc1Oc1c(NS(=O)(=O)c2ccc(C(C)(C)C)cc2)nc(-c2ncccn2)nc1OCCO [Bosentan] | 19.9 (≈ 36.1 µM) | NON[6] | TER | 43.8 (≈ 79.4 µM) | 8170 | TER | Teratogen | correctly classify | misclassified |  |  |  |  |  |
| CS(=O)(=O)OCCCCOS(C)(=O)=O [Busulfan] | 19.2 (≈ 78 µM) | TER[6] | TER | 0.5 (≈ 2.03 µM) | 1220 | TER | Teratogen |  |  | much smaller and concentrated mesoendoderm patterns were observed |  |  |  |  |
| Cn1c(=O)c2c(ncn2C)n(C)c1=O [Caffeine] | 129 (≈ 664 µM) |  |  | 85.4 (≈ 440 µM) | 10000 |  |  |  |  |  |  |  |  |  |
| NC(=O)N1c2ccccc2C=Cc2ccccc21 [Carbamazepine] | 28 (≈ 119 µM) | TER[6] | TER | 21 (≈ 88.9 µM) | 11000 | TER | Teratogen | detect the teratogenic effects |  | decrease both cell differentiation and migration | neural tube defects, cardiovascular and urinary tract anomalies, and cleft palate |  |  |  |
| CC/C(=C(/CC)c1ccc(O)cc1)c1ccc(O)cc1 [Diethylstilbestrol] | 6.1 (≈ 22.7 µM) |  | TER | 8.8 (≈ 32.8 µM) | 5.6 | NON | Teratogen | misclassified as a non-teratogen |  | promote cell migration |  | TER[7] |  |  |
| CN(C)CCOC(c1ccccc1)c1ccccc1 [Diphenhydramine] | 31.4 (≈ 123 µM) |  |  | 2.4 (≈ 9.4 µM) |  | NON |  |  |  |  |  |  |  |  |
| O=C1NC(=O)C(c2ccccc2)(c2ccccc2)N1 [Diphenylhydantoin] | 140 (≈ 555 µM) | NON[6] | TER | 56 (≈ 222 µM) | 20000 | TER | Teratogen | correctly classify; also recorded: detect the teratogenic effects | misclassified | slow down or prevent mesoendoderm cell migration |  |  | orofacial, limb, cardiovascular and neurobehavioral anomalies |  |
| CN(C)CCOC(C)(c1ccccc1)c1ccccn1 (stereo not shown) [Doxylamine] | 45 (≈ 166 µM) |  |  | 87 (≈ 322 µM) | 120 | NON |  |  |  |  |  |  |  |  |
| Nc1nc2ncc(CNc3ccc(C(=O)N[C@@H](CCC(=O)O)C(=O)O)cc3)nc2c(=O)[nH]1 [Folic acid] | 894 (≈ 2030 µM) |  |  | 888 (≈ 2010 µM) | 270 | NON |  |  |  |  |  |  |  |  |
| COc1cc2ncnc(Nc3ccc(F)c(Cl)c3)c2cc1OCCCN1CCOCC1 [Gefitinib] | 1.66 (≈ 3.71 µM) |  |  | 4.6 (≈ 10.3 µM) | 930 | TER |  |  |  |  |  |  |  |  |
| Cc1ccc(NC(=O)c2ccc(CN3CCN(C)CC3)cc2)cc1Nc1nccc(-c2cccnc2)n1 [Imatinib] | 2.7 (≈ 5.47 µM) |  |  | 19.5 (≈ 39.5 µM) | 1560 |  |  |  |  |  |  |  |  |  |
| NNC(=O)c1ccncc1 [Isoniazid] | 488 (≈ 3560 µM) | NON[6] | NON | 370 (≈ 2700 µM) | 3090 | NON |  |  |  |  |  |  |  |  |
| CCOC(=O)N1CCC(=C2c3ccc(Cl)cc3CCc3cccnc32)CC1 [Loratadine] | 3.2 (≈ 8.36 µM) | NON[6] | NON | 24 (≈ 62.7 µM) |  |  |  |  |  |  |  |  |  |  |
| CC[C@H](C)C(=O)O[C@H]1C[C@@H](C)C=C2C=C[C@H](C)[C@H](CC[C@@H]3C[C@@H](O)CC(=O)O3)[C@H]21 [Lovastatin] | 0.68 (≈ 1.68 µM) | NON[6] | TER |  | 10 | TER | Teratogen | correctly classify | misclassified | promote cell migration |  |  |  |  |
| Cn1cc[nH]c1=S [Methimazole] | >1000 |  | TER | 252 (≈ 2210 µM) |  | TER | Teratogen |  |  | promote mesoendoderm differentiation while decrease collective cell migration |  |  |  |  |
| CCN(CC)CCNC(=O)c1cc(Cl)c(N)cc1OC [Metoclopramide] | 154 (≈ 514 µM) | NON[6] | NON | 162 (≈ 540 µM) | 40 | NON | Non-teratogen |  |  |  |  |  |  |  |
| CC1(C)S[C@@H]2[C@H](NC(=O)Cc3ccccc3)C(=O)N2[C@H]1C(=O)O [Penicillin G] |  |  |  |  |  |  |  | Non-teratogen |  |  |  |  |  | 400000 |
| N[C@@H](CC(=O)N1CCn2c(nnc2C(F)(F)F)C1)Cc1cc(F)c(F)cc1F [Sitagliptin] | 77.1 (≈ 189 µM) | NON[6] | NON | 359 (≈ 881 µM) | 390 | NON |  |  |  |  |  |  |  |  |
| CCN(CC)CCNC(=O)c1c(C)[nH]c(/C=C2\C(=O)Nc3ccc(F)cc32)c1C [Sunitinib] |  |  | TER | 0.89 (≈ 2.23 µM) | 30 | TER | Teratogen |  |  | promote mesoendoderm differentiation while decrease collective cell migration |  | TER[7] |  |  |
| Cc1ncc(C[n+]2csc(CCO)c2C)c(N)n1 [Thiamine] | >1000 | NON[6] | NON | >1000 | 110 | NON | Non-teratogen |  |  | slow down or prevent mesoendoderm cell migration |  |  |  |  |
